Test results taken from publication PMC3445516 (PLoS ONE, 2012).
Where two headings read alike, the source gives them in different places.

Assays:
Assay in all cases: Ambit kinase profiling, competition binding
EGFR(S752-I759del) = molecular target: T1, EGFR(S752-I759del) (Homo sapiens, UniProt P00533, DEL752-759); conditions: for % Competition: 10 µM
T1 construct: purchased Ambit Biosciences (KINOMEscan)
Protocol: (§1) Also included in the kinase profile are four isoforms of PKC (δ, ε, η, θ) and eight isoforms of CAMKs (CAMKIα, δ, γ; CAMKIIα, β, δ, γ; CAMK4).
(§2) The global kinase profiling experiment was performed by Ambit Biosciences.

ERK8 = molecular target: T2, ERK8 (Homo sapiens, UniProt Q8TD08)
T2 construct: purchased Ambit Biosciences (KINOMEscan)
T2 sequence (Q8TD08 1-544): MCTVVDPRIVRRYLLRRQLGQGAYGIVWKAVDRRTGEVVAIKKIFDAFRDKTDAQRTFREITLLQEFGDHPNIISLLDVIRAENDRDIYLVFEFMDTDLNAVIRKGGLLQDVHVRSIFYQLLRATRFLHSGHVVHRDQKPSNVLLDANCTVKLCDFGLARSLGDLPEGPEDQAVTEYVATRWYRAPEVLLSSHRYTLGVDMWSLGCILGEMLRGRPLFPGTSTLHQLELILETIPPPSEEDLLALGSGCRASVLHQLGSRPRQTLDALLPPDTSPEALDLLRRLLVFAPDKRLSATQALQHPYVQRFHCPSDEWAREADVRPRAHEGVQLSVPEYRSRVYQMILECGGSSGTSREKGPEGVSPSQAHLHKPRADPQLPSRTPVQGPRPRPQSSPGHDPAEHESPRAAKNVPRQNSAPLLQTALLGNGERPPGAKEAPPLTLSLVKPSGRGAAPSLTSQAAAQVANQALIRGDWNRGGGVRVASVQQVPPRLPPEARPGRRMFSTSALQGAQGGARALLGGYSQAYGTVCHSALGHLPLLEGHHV
Protocol: as §1, §2

p38-delta = molecular target: T3, p38-delta (Homo sapiens, UniProt O15264)
T3 construct: purchased Ambit Biosciences (KINOMEscan)
T3 sequence (O15264 1-365): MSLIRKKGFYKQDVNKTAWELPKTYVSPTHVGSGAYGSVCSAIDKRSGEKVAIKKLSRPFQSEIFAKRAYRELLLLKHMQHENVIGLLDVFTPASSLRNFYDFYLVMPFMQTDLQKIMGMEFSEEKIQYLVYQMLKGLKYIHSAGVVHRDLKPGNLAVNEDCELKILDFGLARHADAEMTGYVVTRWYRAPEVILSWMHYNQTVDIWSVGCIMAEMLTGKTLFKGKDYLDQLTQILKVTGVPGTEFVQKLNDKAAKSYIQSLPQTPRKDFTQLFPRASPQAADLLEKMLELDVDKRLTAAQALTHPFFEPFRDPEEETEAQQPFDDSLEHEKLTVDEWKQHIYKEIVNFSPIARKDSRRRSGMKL
Protocol: as §1, §2

ERK3 = molecular target: T4, ERK3 (Homo sapiens, UniProt Q16659)
T4 construct: purchased Ambit Biosciences (KINOMEscan)
Protocol: as §1, §2

FRK = molecular target: T5, FRK (Homo sapiens, UniProt P42685)
T5 construct: purchased Ambit Biosciences (KINOMEscan)
Protocol: as §1, §2

TAOK3 = molecular target: T6, TAOK3 (Homo sapiens, UniProt Q9H2K8)
T6 construct: purchased Ambit Biosciences (KINOMEscan)
T6 sequence (Q9H2K8 1-898): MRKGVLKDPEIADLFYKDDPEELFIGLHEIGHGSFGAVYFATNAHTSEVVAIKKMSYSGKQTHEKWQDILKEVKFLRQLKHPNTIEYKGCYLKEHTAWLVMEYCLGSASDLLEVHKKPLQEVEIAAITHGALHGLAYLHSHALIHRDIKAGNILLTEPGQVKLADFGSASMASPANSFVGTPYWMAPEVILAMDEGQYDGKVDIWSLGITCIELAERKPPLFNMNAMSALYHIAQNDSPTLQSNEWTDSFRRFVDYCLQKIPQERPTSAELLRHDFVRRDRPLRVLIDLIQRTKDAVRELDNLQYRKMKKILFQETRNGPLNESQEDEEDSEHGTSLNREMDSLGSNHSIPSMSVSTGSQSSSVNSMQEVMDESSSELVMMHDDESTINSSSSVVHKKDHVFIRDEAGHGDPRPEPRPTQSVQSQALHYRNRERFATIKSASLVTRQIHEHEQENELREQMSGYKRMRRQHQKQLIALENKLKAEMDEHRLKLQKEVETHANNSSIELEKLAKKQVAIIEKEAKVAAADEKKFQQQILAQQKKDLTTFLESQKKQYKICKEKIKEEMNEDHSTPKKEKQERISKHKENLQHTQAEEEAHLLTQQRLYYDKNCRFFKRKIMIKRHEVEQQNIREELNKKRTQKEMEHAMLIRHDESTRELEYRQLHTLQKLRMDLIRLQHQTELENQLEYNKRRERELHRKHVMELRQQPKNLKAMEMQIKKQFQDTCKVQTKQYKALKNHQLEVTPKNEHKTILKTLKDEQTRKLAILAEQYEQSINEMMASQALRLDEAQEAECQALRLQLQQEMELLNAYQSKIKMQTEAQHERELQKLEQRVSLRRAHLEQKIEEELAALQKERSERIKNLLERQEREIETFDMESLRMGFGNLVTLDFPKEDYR
Protocol: as §1, §2

MEK6 = molecular target: T7, MEK6 (Homo sapiens, UniProt P52564)
T7 construct: purchased Ambit Biosciences (KINOMEscan)
T7 sequence (P52564 1-334): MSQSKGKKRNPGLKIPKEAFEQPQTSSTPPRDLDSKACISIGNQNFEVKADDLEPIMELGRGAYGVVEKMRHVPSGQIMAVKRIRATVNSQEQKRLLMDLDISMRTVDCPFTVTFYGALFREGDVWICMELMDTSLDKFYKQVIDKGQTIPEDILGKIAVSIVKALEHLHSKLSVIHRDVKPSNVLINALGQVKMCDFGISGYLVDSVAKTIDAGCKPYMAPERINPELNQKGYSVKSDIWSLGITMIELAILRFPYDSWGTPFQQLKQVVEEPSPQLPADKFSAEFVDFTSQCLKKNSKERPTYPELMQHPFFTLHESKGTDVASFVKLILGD
Protocol: as §1, §2

T4 sequence (Q16659 whole entry): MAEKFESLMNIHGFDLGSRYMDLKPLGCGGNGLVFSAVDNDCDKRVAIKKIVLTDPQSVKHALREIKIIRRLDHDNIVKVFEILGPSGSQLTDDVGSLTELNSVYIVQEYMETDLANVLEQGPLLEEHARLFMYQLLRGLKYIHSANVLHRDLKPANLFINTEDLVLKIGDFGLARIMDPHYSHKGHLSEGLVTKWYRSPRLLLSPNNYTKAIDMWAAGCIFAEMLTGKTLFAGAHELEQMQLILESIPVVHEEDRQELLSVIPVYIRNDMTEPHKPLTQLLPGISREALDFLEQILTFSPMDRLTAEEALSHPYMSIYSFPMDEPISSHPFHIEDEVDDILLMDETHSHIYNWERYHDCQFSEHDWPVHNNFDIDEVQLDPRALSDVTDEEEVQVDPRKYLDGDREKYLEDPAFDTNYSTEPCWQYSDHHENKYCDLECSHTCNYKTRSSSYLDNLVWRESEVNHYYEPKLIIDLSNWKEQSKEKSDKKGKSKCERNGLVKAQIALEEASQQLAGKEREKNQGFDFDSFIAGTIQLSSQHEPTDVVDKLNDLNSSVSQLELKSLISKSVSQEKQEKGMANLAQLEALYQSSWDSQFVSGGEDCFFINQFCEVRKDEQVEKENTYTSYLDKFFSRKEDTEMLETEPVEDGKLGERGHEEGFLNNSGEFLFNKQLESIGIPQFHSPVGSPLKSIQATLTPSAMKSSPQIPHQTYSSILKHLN
T5 sequence (P42685 whole entry): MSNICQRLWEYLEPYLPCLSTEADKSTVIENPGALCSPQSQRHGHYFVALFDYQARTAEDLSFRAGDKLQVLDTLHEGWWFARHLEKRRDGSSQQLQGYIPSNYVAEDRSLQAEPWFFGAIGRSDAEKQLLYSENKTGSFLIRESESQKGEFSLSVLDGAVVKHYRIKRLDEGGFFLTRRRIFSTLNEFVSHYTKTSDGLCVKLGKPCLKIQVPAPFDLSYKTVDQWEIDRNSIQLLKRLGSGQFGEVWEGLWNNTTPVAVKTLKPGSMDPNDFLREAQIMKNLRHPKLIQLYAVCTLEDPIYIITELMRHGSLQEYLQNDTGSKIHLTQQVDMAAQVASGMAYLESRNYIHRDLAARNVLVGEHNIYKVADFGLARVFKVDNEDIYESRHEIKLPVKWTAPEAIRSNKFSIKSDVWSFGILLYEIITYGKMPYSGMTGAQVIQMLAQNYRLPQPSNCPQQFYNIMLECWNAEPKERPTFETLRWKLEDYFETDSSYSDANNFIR

Row | SMILES | % Competition (EGFR(S752-I759del)) | inhibition at 10 µM (ERK8; ERK8, 10 µM, read-out: % Competition) | inhibition at 10 µM (p38-delta; 10 µM, read-out: % Competition) | inhibition at 10 µM (ERK3; ERK3, 10 µM, read-out: % Competition) | inhibition at 10 µM (FRK; FRK, 10 µM, read-out: % Competition) | inhibition at 10 µM (TAOK3; TAOK3, 10 µM, read-out: % Competition) | inhibition at 10 µM (MEK6; MEK6, 10 µM, read-out: % Competition) | inhibition at 10 µM (ERK8; read-out: % Competition) | % Competition (p38-delta; 10 µM) | inhibition at 10 µM (ERK3; read-out: % Competition) | inhibition at 10 µM (FRK; read-out: % Competition) | inhibition at 10 µM (TAOK3; read-out: % Competition) | inhibition at 10 µM (MEK6; read-out: % Competition) | Percent Competition (EGFR(S752-I759del); compound concentration 10 uM) | inhibition at 10 µM (ERK8; ERK8, compound concentration 10 uM, read-out: Percent Competition) | inhibition at 10 µM (p38-delta; compound concentration 10 uM, read-out: Percent Competition) | inhibition at 10 µM (ERK3; ERK3, compound concentration 10 uM, read-out: Percent Competition) | inhibition at 10 µM (FRK; FRK, compound concentration 10 uM, read-out: Percent Competition) | inhibition at 10 µM (TAOK3; TAOK3, compound concentration 10 uM, read-out: Percent Competition) | inhibition at 10 µM (MEK6; MEK6, compound concentration 10 uM, read-out: Percent Competition)
1 | Fc1ccc(-c2c(-c3ccncc3)[nH]c3nccnc23)cc1 [Compound 122] | 98% | 98% | 82% | 98% | 85% | 80% | 66% |  |  |  |  |  |  |  |  |  |  |  |  | 
2 | CC(O)CNc1cc(-c2[nH]c3cccnc3c2-c2ccc(F)cc2)ccn1 (stereo not drawn) [Compound 140] | 91% |  |  |  |  |  |  | < 50% | <50% | < 50% | < 50% | < 50% | < 50% |  |  |  |  |  |  | 
3 | Fc1ccc(-c2c(-c3ccncc3)[nH]c3nccnc23)cc1 [RO1155697-000-005] |  |  |  |  |  |  |  |  |  |  |  |  |  | 98% | 98% | 82% | 98% | 85% | 80% | 66%
